Laboratory results as given in patent US10835505B2, “Oral pharmaceutical formulation for weight loss, diabetes and related disorders” (priority 2018, dated 2020).
Structures can show the parent of a compound that is named as a salt.

Legend:
TAS2R subtypes = conditions: cited from earlier work
[1] = in vivo; cited from earlier work
[2] = normal C57BL/6 mice, oral DB only at 60 μmol/kg (26.8 mg/kg); cited from earlier work
[3] = healthy volunteers, 1 μmol/kg DB; cited from earlier work
[4] = C57BL/6 DIO mice, 60 μmol/kg DB (26.8 mg/kg) once daily, 28-day period, vs vehicle; cited from earlier work
[5] = acute food intake inhibition study, oral gavage, Sprague Dawley rats; type: in vivo
Excerpt: In a short-term food intake inhibition study, in Sprague Dawley rats the doses of DB administered were 7.5, 15, 30, and 60 μmol/kg. The corresponding human equivalent doses (HED) are be 1.2, 2.4, 4.9, 9.7 μmol/kg, respectively. In a longer-term food intake inhibition study in C57BL/6NTac mice the dose of DB used was 60 μmol/kg. The corresponding HED was 4.9 μmol/kg. […] Therefore, the disclosed formulation provides a dose of DB from about 500 nmol/kg to about […], which corresponds to from about 10 mg to about 200 mg for a human adult.
This example provides the results of an oral dose rat gavage study, measuring food and water intake following administration of a disclosed formulation by gavage. We conducted an acute food intake inhibition study of DB in Sprague Dawley rats.
For a longer term study, in view of the foregoing acute study findings, the effect of a combination of components was investigated. To ensure the adequate effect of the DB combination, 60 μmol/kg (26.8 mg/kg) once daily for DB in the first two weeks of the study was used, and then switched to twice daily in the last two weeks of the study.

[6] = judged, times more bitter than denatonium benzoate; cited from earlier work

For `O=C(/C=C/c1ccc(O)c(O)c1)O[C@@H]1C[C@]2(O)C[C@@H](OC2=O)[C@@H]1O` [3-CQL, (1R,3R,4R,5R)-1,4-Dihydroxy-7-oxo-6-oxabicyclo[3.2.1]oct-3-yl (2E)-3-(3,4-dihydroxyphenyl)acrylate], which “number of TAS2R subtypes activated” value (TAS2R subtypes) is on record?
The value was “eight”.

With `CN1CCc2cccc3c2[C@H]1Cc1ccc(O)c(O)c1-3` [Apomorphine, (6aR)-5,6,6a,7-Tetrahydro-6-methyl-4H-dibenzo(de,g)chinolin-10,11-diol hydrochlorid] as the compound, how does the oral availability [1] read?
The oral availability was ~4%.

What does the source list for `CC[N+](CC)(CC(=O)Nc1c(C)cccc1C)Cc1ccccc1.O=C([O-])c1ccccc1` [DB, benzyl-[2-(2,6-dimethylanilino)-2-oxoethyl]-diethylazanium benzoate]?
gastric emptying rate [2]: significantly inhibited gastric emptying rate; number of TAS2R subtypes activated (TAS2R subtypes): eight; nutrient volume tolerance [3]: decreased nutrient volume tolerance; satiation [3]: increased satiation; body weight [4]: induced a decrease in body weight; food intake ([5]; Sprague Dawley rats, various doses of DB by gavage, within the first 6 h after administration): significantly inhibited food intake; half-life ([5]; rat, in vivo, oral, inferred from duration of food intake inhibition in Sprague Dawley rats): 6 h

Which “number of TAS2R subtypes activated” value (TAS2R subtypes) does the source give for `C=C[C@H]1C[N@]2CC[C@H]1C[C@H]2[C@H](O)c1ccnc2ccc(OC)cc12` [Quinine, (R)-[(2S,4S,5R)-5-ethenyl-1-azabicyclo[2.2.2]octan-2-yl]-(6-methoxyquinolin-4-yl)methanol, reference compound] here?
Its value is “nine”.

For `CC[N+](CC)(CC(=O)Nc1c(C)cccc1C)Cc1ccccc1` [denatonium saccharide, benzyl-[2-(2,6-dimethylanilino)-2-oxoethyl]-diethylazanium; 1,1-dioxo-1,2-benzothiazol-3-olate], which “bitterness relative to denatonium benzoate” value [6] is on record?
Its value is 5 times.
